The text below walks through data of ChEMBL document CHEMBL1201862, “PubChem BioAssay data set” (2004).

Holding throughout (test): NCI anticancer screen, dose series, 48 h
Assay [1] has as its system 786-0.
Assay [2] has as its system A549.
Assay [3] concerns ACHN.
Assay [4] deals with CCRF-CEM.
Assay [5] deals with HOP-62.
Assay [6] concerns HT-29.
The test system of assay [7] is MDA-MB-231.
Assay [8] concerns MDA-N.
The test system of assay [9] is MOLT-4.
Assay [10] deals with Malme-3M.
Assay [11] relates to NCI-H23.
Assay [12] deals with OVCAR-4.
For assay [13], the system named is OVCAR-8.
For assay [14], the system named is RPMI-8226.
Assay [15] deals with SK-MEL-28.
The test system of assay [16] is SK-MEL-2.
The test system of assay [17] is SNB-75.
Assay [18] relates to U-251.
The test system of assay [19] is UO-31.

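48-hour exposure; five concentrations; linearly interpolated endpoints. GI50 is the concentration that inhibits growth by half.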 Activity calls are given as the source filed them. Cut-off read from the data, not from the text of the source: active = GI50 up to about 1.1 µM and inactive = higher.

On to `O=c1oc2ccc(Cl)cc2cc1C1=CSC2=NCCN12`, for which the GI50 in assay [1] is 18.4 µM (inactive); in [2] it was 40.7 µM (inactive); in assay [3], 37.7 µM (inactive); in assay [4] it was 20.4 µM (inactive); in assay [5] it was 17.4 µM (inactive); in assay [6], 18.8 µM (inactive). Besides, the GI50 was 20.4 µM (inactive) in assay [7]; 20.8 µM (inactive) in assay [8]; 17.9 µM (inactive) in [9]; 31.1 µM (inactive) in [10]; 21.4 µM (inactive) in assay [11]; 23.6 µM (inactive) in assay [12]. The GI50 was 19.9 µM (inactive) in [13]; 20.4 µM (inactive) in assay [14]; 27.9 µM (inactive) in [15]; 23.3 µM (inactive) in [16]; 44.5 µM (inactive) in assay [17]; 23.2 µM (inactive) in assay [18]. Moreover, the GI50 in assay [19] is 20.7 µM (inactive).
As to `O=S(=O)(CC(Cl)c1ccccc1)c1nc2ccccc2s1` (stereo not given), the GI50 was 6.95 µM (inactive) in assay [1]; 19.5 µM (inactive) in assay [2]; 15.5 µM (inactive) in [3]; 1.7 µM (inactive) in assay [4]; 23.1 µM (inactive) in [5]; 5.42 µM (inactive) in [6]. Besides, the GI50 in assay [7] was 14.1 µM (inactive); in assay [8] it was 6.22 µM (inactive); in [9] it was 2.81 µM (inactive); in assay [10] it was 9.16 µM (inactive); in [11] it was 8.38 µM (inactive); in assay [12], 19.8 µM (inactive). The GI50 in assay [13] was 7.96 µM (inactive); in [14] it was 3.35 µM (inactive); in [15], 15.7 µM (inactive); in assay [16], 17.8 µM (inactive); in assay [17] it was 14.5 µM (inactive); in assay [18], 12.5 µM (inactive). The GI50 in [19] was 15.4 µM (inactive).
Consider `CCCCCCCCCCCCCCCCCc1cccc(OCOCCOC)c1C(=O)O`, for which the GI50 in [1] was 18.6 µM (inactive); in assay [2], 18.7 µM (inactive); in [3], 19.1 µM (inactive); in [4], 26.7 µM (inactive); in assay [5], 18.8 µM (inactive); in assay [6] it was 17.1 µM (inactive). The GI50 in assay [7] is 19.7 µM (inactive); in assay [8], 19.1 µM (inactive); in assay [9] it was 21.5 µM (inactive); in assay [10] it was 10.2 µM (inactive); in assay [11], 15.2 µM (inactive); in assay [12], 19.5 µM (inactive). For the same molecule, the GI50 was 16.4 µM (inactive) in assay [13]; 24.3 µM (inactive) in [14]; 20.1 µM (inactive) in assay [15]; 19.5 µM (inactive) in [16]; 15.5 µM (inactive) in [17]; 20.3 µM (inactive) in [18]. Besides, the GI50 in [19] was 17 µM (inactive).
Consider `C=CCC1(OC(C)=O)C2OC(=O)C1(O)OCC2O` (stereo not given), for which the GI50 in [1], in assay [2], in [3], in [4], in assay [5] and in assay [6] was > 100 µM (inactive) throughout. The GI50 in assay [7], in assay [8], in assay [9], in assay [10], in assay [11] and in assay [12] was > 100 µM (inactive) in each case. In addition, the GI50 in assay [13] was > 100 µM (inactive); in assay [14] it was > 100 µM (inactive); in [15], > 100 µM (inactive); in assay [16] it was > 100 µM (inactive); in assay [17], > 39.9 µM (inactive); in assay [18], > 100 µM (inactive). The GI50 in assay [19] was > 100 µM (inactive).
Take `COC1CCON1C(=O)c1ccccc1` (stereo not given): the GI50 in assay [1], in [2], in [3], in assay [4], in assay [5] and in assay [6] was > 10 µM (inactive) in each case. In addition, the GI50 in assay [7], in assay [8], in assay [9], in assay [10], in assay [11] and in assay [12] was > 10 µM (inactive) throughout. The GI50 in [13], in assay [14], in assay [15], in assay [16], in [17] and in assay [19] was > 10 µM (inactive) in each case.
As to `O=c1c(-c2nc3ccccc3c3ccccc3c2=O)nc2ccccc2c2ccccc12`, the GI50 was 36 µM (inactive) in assay [1]; 48 µM (inactive) in assay [2]; 36.1 µM (inactive) in assay [3]; 28.1 µM (inactive) in assay [4]; 34.8 µM (inactive) in [5]; 43.5 µM (inactive) in [6]. For the same molecule, the GI50 was 34 µM (inactive) in assay [7]; 24.3 µM (inactive) in [8]; 34.6 µM (inactive) in assay [9]; 76.6 µM (inactive) in assay [10]; 40 µM (inactive) in assay [11]; 37.5 µM (inactive) in assay [12]. The GI50 was 27.7 µM (inactive) in [13]; 26.2 µM (inactive) in assay [14]; 55.5 µM (inactive) in assay [15]; 27.4 µM (inactive) in assay [16]; 32.1 µM (inactive) in assay [17]; 22.2 µM (inactive) in [18]. Also, the GI50 in assay [19] was 90.2 µM (inactive).
For `CCOC(=O)/C=C(\C(=O)OCC)n1ccc(=O)[nH]c1=O`, the GI50 is 4.85 µM (inactive) in assay [1]; 29.8 µM (inactive) in assay [2]; 9.35 µM (inactive) in [3]; 2.16 µM (inactive) in [4]; 26.9 µM (inactive) in assay [5]; 15.2 µM (inactive) in [6]. Further, the GI50 in assay [7] is 14.3 µM (inactive); in assay [8] it was 22.6 µM (inactive); in assay [9] it was 3.44 µM (inactive); in assay [10], 10.2 µM (inactive); in assay [11], 16.7 µM (inactive); in assay [12] it was 19.1 µM (inactive). The GI50 in [13] was 24 µM (inactive); in assay [14], 13.1 µM (inactive); in [15], 16.9 µM (inactive); in [16], 23.4 µM (inactive); in assay [17] it was 17.1 µM (inactive); in [18] it was 17.4 µM (inactive). In assay [19], the GI50 was 16.9 µM (inactive).
`COc1ccc(N2C(=O)C3c4[nH]c5ccc([N+](=O)[O-])cc5c4C4CCC(C(C)(C)C)CC4C3C2=O)cc1` (stereo not given): the GI50 in assay [1] is 11.4 µM (inactive); in assay [2], 6.28 µM (inactive); in assay [3], 9.75 µM (inactive); in assay [4] it was 4.51 µM (inactive); in [5], 24.4 µM (inactive); in assay [6] it was 3.96 µM (inactive). Moreover, the GI50 was 5.18 µM (inactive) in assay [7]; 20.3 µM (inactive) in assay [8]; 14.3 µM (inactive) in [9]; 28.4 µM (inactive) in assay [10]; 6.53 µM (inactive) in [11]; 14.8 µM (inactive) in assay [12]. Besides, the GI50 in assay [13] was 23.6 µM (inactive); in assay [14] it was 13.3 µM (inactive); in [15], 61.7 µM (inactive); in assay [16], 26.1 µM (inactive); in assay [17], 7.28 µM (inactive); in assay [18] it was 19.3 µM (inactive). The GI50 in assay [19] was 16.3 µM (inactive).
Take `NC(=O)NC(=O)c1cccc(NC(=O)CCl)c1`: the GI50 was 1.06 µM (active) in assay [1]; 2.56 µM (inactive) in [3]; 0.855 µM (active) in assay [4]; 1.61 µM (inactive) in assay [5]; 0.883 µM (active) in [6]; 2.79 µM (inactive) in [7]. In addition, the GI50 in [8] is 0.385 µM (active); in [9] it was 1.11 µM (active); in assay [10] it was 5.22 µM (inactive); in assay [11], 0.953 µM (active); in assay [12] it was 2.19 µM (inactive); in assay [13] it was 2.22 µM (inactive). Further, the GI50 was 1.18 µM (inactive) in assay [14]; 7 µM (inactive) in [15]; 2.38 µM (inactive) in [16]; 1.98 µM (inactive) in assay [17]; 0.975 µM (active) in assay [18]; 0.168 µM (active) in [19].
On to `CCOC(=O)/C(C(=O)Nc1cccc(C(F)(F)F)c1)=C(/N)N1CCOCC1`, for which the GI50 in assay [1], in assay [2], in assay [3], in [4], in assay [5] and in [6] was > 100 µM (inactive) each time. In addition, the GI50 in assay [7], in assay [8], in [9], in assay [10], in assay [11] and in assay [12] was > 100 µM (inactive) each time. The GI50 in assay [13], in assay [14], in [15], in assay [16], in assay [17] and in assay [18] was > 100 µM (inactive) each time.
As for `CC1OC(OC2C[C@](O)(C(=O)CBr)Cc3c(O)c4c(c(O)c32)C(=O)c2ccccc2C4=O)C(F)C(O)C1O` (stereo not given in full), the GI50 in assay [1] is 3.66 µM (inactive); in assay [2], 4.67 µM (inactive); in assay [3], 1.53 µM (inactive); in assay [4], 0.776 µM (active); in assay [5], 3.72 µM (inactive); in assay [6] it was 12.1 µM (inactive). Besides, the GI50 in assay [7] is 9.89 µM (inactive); in assay [8] it was 16.3 µM (inactive); in assay [10], 3.66 µM (inactive); in assay [11] it was 5.58 µM (inactive); in assay [12], 23.6 µM (inactive); in assay [13] it was 16.1 µM (inactive). Also, the GI50 in assay [14] was 1.46 µM (inactive); in [15], 23.8 µM (inactive); in [16] it was 29.6 µM (inactive); in [17] it was 8.83 µM (inactive); in assay [18], 5.83 µM (inactive); in assay [19], 1.22 µM (inactive).
